We go through ten molecules from patent US5667809A, “Continuous fluorochemical microdispersions for the delivery of lipophilic pharmaceutical agents” (priority 1995, dated 1997).

Each structure is given as a SMILES string. Read-outs that look alike come from different tables or passages of the source.

The conditions of series [1]: cited from earlier work.
For series [2] the following is noted: intravenous, cited from earlier work.
The next series relates to E. coli. Put plainly: Antibacterial activity, E. coli titer in wells with human lung epithelial cells. Type of series: cell-based. The following applies: saline. The procedure:
The experimental procedure is followed:
a). Prepare a monolayer of normal human lung epithelial cells.
b). Add 60 μL of E. coli culture into the well with lung epithelial cells on the 96-well plate.
c). […] Incubate at 37° C. overnight.
d). Aspirate the cultured mixture and diluted with LB media (1:2).
e). Take 20 μL of diluted mixture and plate on an LB plate for an initial titration of E. coli. The E. coli plates were incubated at 37° C. overnight.
f). Various dilutions were made according to the initial titer of each mixture so as to determine the accurate titer in each well. A duplicated set of tests was conducted for each treatment.
g). The titer of E. coli was calculated by multiplying the number of colonies grown on each plate by a dilution factor for each well tested.

Turning to `c1ccc2cc3ccccc3cc2c1` [^14 C-anthracene, anthracene], the “Log Po/w” value in series [1] (octanol/water) is recorded as 4.5.
For the molecule `CC(=O)O[C@H]1C(=O)[C@@]2(C)[C@H]([C@H](OC(=O)c3ccccc3)[C@]3(O)C[C@H](OC(=O)[C@H](O)[C@@H](NC(=O)c4ccccc4)c4ccccc4)C(C)=C1C3(C)C)[C@]1(OC(C)=O)CO[C@@H]1C[C@@H]2O` [paclitaxel], the systemic toxicities result was “cardiac toxicity and neurotoxicity” in series [2]; “high systemic toxicities” in series [2] (listed as Taxol).
`CC(C)=CCN1CCC2(C)c3cc(O)ccc3CC1C2C` (stereo not drawn) [pentazocin]: the “Octanol/water partition coefficient Po/w” value in series [1] (in octanol/pH 7.4 isotonic phosphate buffer at 37° C. (footnote a on the Log value)) is on record as 150.
On to `CCCCNc1ccc(C(=O)OCCN(C)C)cc1` [tetracaine], for which the “Log Po/w” value in series [1] (octanol/water) is listed as 1.90.
On to `CC(CN1c2ccccc2Sc2ccccc21)N(C)C` (stereo not drawn) [promethazine], for which the “Log Po/w” value in series [1] (in octanol/pH 7.4 isotonic phosphate buffer at 37° C.) is 3.10.
Consider `CCCCCC(=O)OCCOCn1cnc2c(=O)[nH]c(N)nc21` [hexanoyl acyclovir], for which, in series [1] (pH 7.4), the “Log Po/w” value is 0.93 and the “Octanol/water partition coefficient Po/w” value is recorded as 8.58.
In the case of `O=C(O)c1cn(C2CC2)c2cc(N3CCNCC3)c(F)cc2c1=O` [Ciprofloxacin], the E. coli titer with E. coli (0.05 mg/mL), with E. coli (0.1 mg/mL) and with E. coli (0.6 mg/mL) was 0 colonies/ml in each case.
On to `CCCCC(CC)COC(=O)c1ccc(N(C)C)cc1` (stereo not drawn) [^14 C-padimate-o, padimate-o], for which, in series [1] (octanol/water), the “Log Po/w” value is given as 6.6.
Consider `CCCCC(=O)OCCOCn1cnc2c(=O)[nH]c(N)nc21` [valeryl acyclovir], for which, in series [1] (pH 7.4), the “Log Po/w” value is 0.30 and the “Octanol/water partition coefficient Po/w” value was 2.01.
In the case of `Clc1cccc(Cl)c1N=C1NCCN1` [^3 H-clonidine, clonidine], the “Log Po/w” value in series [1] (octanol/water) is listed as 1.4.
